From US20250090698A1, “SMALL MOLECULE INHIBITORS FOR EARLY DIAGNOSIS OF PROSTATE SPECIFIC MEMBRANE ANTIGEN CANCERS AND NEURODEGENERATIVE DISEASES” (INDIAN INSTITUTE OF TECHNOLOGY INDORE, priority 2018, published 2025)
Values joined by “and” are separate entries in the source; they are usually repeats but may differ in a detail not shown here. Equal entries are not always repeated.

Experiments:
[1] = biological target: T1, PSMA protein (Homo sapiens, UniProt Q04609); experiment: Binding affinity of fluorescent conjugates in LNCaP cells by flow cytometry (FACS); details: mean fluorescence intensity, triplicate, read-out: dissociation constant (KD)
T1 construct: endogenous in cells; host or cells: LNCaP
T1 sequence (Q04609 whole entry): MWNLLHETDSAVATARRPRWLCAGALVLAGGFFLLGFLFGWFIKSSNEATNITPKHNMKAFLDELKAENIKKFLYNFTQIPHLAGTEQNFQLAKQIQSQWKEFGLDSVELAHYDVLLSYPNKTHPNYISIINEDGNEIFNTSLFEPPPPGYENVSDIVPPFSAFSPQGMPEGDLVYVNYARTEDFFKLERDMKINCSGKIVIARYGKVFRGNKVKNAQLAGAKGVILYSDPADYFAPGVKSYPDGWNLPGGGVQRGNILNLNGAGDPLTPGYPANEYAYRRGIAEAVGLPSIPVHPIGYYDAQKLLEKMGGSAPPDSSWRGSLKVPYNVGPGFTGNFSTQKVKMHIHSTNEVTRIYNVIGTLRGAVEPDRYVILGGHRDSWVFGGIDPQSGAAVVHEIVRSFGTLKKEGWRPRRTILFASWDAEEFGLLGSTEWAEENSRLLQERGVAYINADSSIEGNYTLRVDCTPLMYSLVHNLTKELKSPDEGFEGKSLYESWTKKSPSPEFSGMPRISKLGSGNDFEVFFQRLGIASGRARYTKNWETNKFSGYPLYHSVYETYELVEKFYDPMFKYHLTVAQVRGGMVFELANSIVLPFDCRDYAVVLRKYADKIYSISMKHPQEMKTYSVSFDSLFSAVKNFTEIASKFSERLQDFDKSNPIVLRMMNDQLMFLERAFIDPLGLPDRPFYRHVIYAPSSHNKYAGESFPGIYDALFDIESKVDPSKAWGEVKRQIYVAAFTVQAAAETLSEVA
Procedure: In an embodiment in FIG. 15, Evaluation of binding affinity of PSMA targeted fluorescent conjugate 22, AAPT-C17201, using flow cytometry analysis. The binding affinity constant of PSMA targeted fluorescent conjugate, AAPT-C17201, to target PSMA was determined in vitro in LNCaP cells by measuring the mean fluorescence intensity per cell for different concentrations of the fluorescent conjugate in triplicate using Fluorescence Activated Cell Sorting (FACS) study.

[2] = biological target: T2, PSMA protein isolated from prostate cancer cell LNCaP (Homo sapiens, UniProt Q04609); experiment: PSMA or GCPII enzyme inhibition (NAALADase) assay, Amplex Glutamate kit; format: biochemical; details: NAAG 30 nM substrate, 60 min, fluorescence
T2 construct: membrane portion of PSMA enzyme was extracted from PSMA+ LNCaP cell line; endogenous in cells; host or cells: LNCaP (membrane pellet after 100,000 x g ultracentrifugation)
T2 sequence (Q04609 whole entry): as above
Procedure: Briefly, PSMA enzyme was extracted from membrane lysates of LNCaP cell lines after separating the soluble cytosolic PSM′ portion by ultracentrifugation at 100,000×g. The PSMA enzyme (8.3027 ng, 100 μL) free from cytosolic portion was incubated with various concentrations of the AAPT inhibitor (0.1 nM to 1000 nM, 100 μL) in the presence of NAAG (30 nM, 50 μL) for 60 min in a 24-well plate. The amount of glutamic acid released by the hydrolysis of NAAG during competitive inhibition by AAPT inhibitor was measured by incubating each well with a working solution of Amplex Red reagent (100 uM, 50 μL) for 30 min at 37° C. The fluorescence emission from each well, proportional to the amount of released glutamic acid, was measured using Synergy H1 multimode plate reader (BioTek Instruments, Inc., Winooski, VT, USA) at an excitation and emission wavelength of 530 nm and 590 nm respectively.
In the first trial, the enzyme inhibition analysis was performed by incubating PSMA enzyme with increasing concentrations of inhibitor, AAPT.
Fluorescent-based enzyme inhibition assay was performed to determine the IC50 value of the newly synthesized GCPII inhibitors 1-3 (AAPT ligands). Amplex Glutamate kit was purchased from Invitrogen, and a working solution of Amplex Red reagent (5 mL, 100 μM) was prepared. Meanwhile, membrane portion of PSMA enzyme was extracted from PSMA+ LNCaP cell line by following a reported protocol. Briefly LNCaP cells (1 million) were harvested in HEPES buffer (1 mL) and lyzed twice using probe sonicator for 30 s. […] The amount of glutamic acid released by the hydrolysis of NAAG was measured by incubating a working solution of Amplex Red reagent (50 μL, 100 μM) for 30 min at 37° C. The fluorescence emission after the oxidation of Amplex Red reagent was measured by using Synergy H1 multimode plate reader (BioTek Instruments, Inc., Winooski, VT, USA). The excitation wavelength was fixed at 530 nm, and the fluorescence emission is measured at 590 nm. […]

[3] = biological target: T1, PSMA protein; experiment: Binding affinity of 99mTc AAPT-PCa bioconjugates in PSMA+ LNCaP cells, gamma counter; details: 99mTc bioconjugate, counts per minute, 1 h incubation, read-out: dissociation constant (KD), binding affinity
Procedure: In an embodiment, FIG. 24, evaluation of binding affinity of AAPT-PCa Bioconjugate 8a in PSMA+ LNCaP cells was done, using gamma scintillation counter. The binding affinity constant of PSMA targeted conjugate, 8a, to target PSMA was determined in vitro in LNCaP cells by measuring the counts per minute for different concentrations of the ^99mTc bioconjugate 8a in triplicate.
A solution of stannous chloride dihydrate (0.80 mg, 0.003 mmol) in 0.2 M hydrochloric acid (0.8 mL) was added to a solution of sodium-α-D-glucoheptonate dihydrate (800 mg, 2.815 mmol) in nitrogen-purged water. Chelating bioconjugate 8a-g (0.001 mmol) was added to the reaction mixture while continuous nitrogen purging. The pH of the solution was adjusted to 6.8 using 0.1 N sodium hydroxide solution. After the pH adjustment nitrogen-purged water was added to achieve a total volume of 10 mL. The solution was then dispensed in 5 mL vials (1 mL/vial) under nitrogen atmosphere and lyophilized for 48 h. […]
The cells were then gently dissociated with trypsin and centrifuge to obtain a pellet. […] The cell pellet free of unbound bioconjugate was resuspended in the ice-cold FACS buffer to evaluate cell-bound radioactivity using a gamma counter. The dissociation constant Kd was calculated using graph pad prism 7.04.

Kd [1] [nM] | Structure (SMILES) | further results
130 | CCN(CC)c1ccc2c(-c3ccccc3C(=O)NCCCC[C@H](NC(=O)CCCCCCCNC(=O)c3ccc(CNC(=O)[C@H](Cc4ccccc4)NC(=O)[C@H](Cc4ccccc4)NC(=O)CCCCCCCNC(=O)CC[C@H](NC(=O)CN[C@@H](CCC(=O)O)C(=O)O)C(=O)O)cc3)C(=O)N[C@@H](CC(=O)O)C(=O)NCCN)c3ccc(=[N+](CC)CC)cc-3oc2c1 [Ligand 25] | –
85 | CCN(CC)c1ccc2c(-c3ccccc3C(=O)NCCCC[C@H](NC(=O)CCCCCCCNC(=O)[C@H](Cc3ccccc3)NC(=O)[C@H](Cc3ccccc3)NC(=O)CCCCCCCNC(=O)CC[C@H](NC(=O)CN[C@@H](CCC(=O)O)C(=O)O)C(=O)O)C(=O)N[C@@H](CC(=O)O)C(=O)NCCN)c3ccc(=[N+](CC)CC)cc-3oc2c1 [Ligand 22] | –
– | O=C(O)CC[C@H](NCC(=O)N[C@@H](CCC(=O)O)C(=O)O)C(=O)O [Ligand 1] | IC50 [2]: 38.5 nM and 95 nM and 78 nM
– | NC(CNC(=O)[C@H](Cc1cccc2ccccc12)NC(=O)[C@H](Cc1cccc2ccccc12)NC(=O)CCCCCCCNC(=O)CCC(NC(=O)CNC(CCC(=O)O)C(=O)O)C(=O)O)C(=O)N[C@@H](CC(=O)O)C(=O)N[C@@H](CS)C(=O)O (stereo partly shown) [Ligand 8g] | Kd [3]: 42 nM
